The record followed here is patent publication US12723063B2, “GIPR-agonist compounds” (Eli Lilly and Company, priority 2019, dated 2026).

What all share (experiment): cAMP functional assay (HTRF) in HEK293 cells in presence of 0.1% casein
What all share (format): cell-based
(In general: In TR-FRET formats the signal depends on donor and acceptor labels being close together.)

Assay [1] deals with T1, human glucose-dependent insulinotropic peptide receptor (GIPR) (Homo sapiens, UniProt P48546).
T1 construct: expressed in transfected cells; host or cells: HEK293
T1 sequence (P48546 22-466): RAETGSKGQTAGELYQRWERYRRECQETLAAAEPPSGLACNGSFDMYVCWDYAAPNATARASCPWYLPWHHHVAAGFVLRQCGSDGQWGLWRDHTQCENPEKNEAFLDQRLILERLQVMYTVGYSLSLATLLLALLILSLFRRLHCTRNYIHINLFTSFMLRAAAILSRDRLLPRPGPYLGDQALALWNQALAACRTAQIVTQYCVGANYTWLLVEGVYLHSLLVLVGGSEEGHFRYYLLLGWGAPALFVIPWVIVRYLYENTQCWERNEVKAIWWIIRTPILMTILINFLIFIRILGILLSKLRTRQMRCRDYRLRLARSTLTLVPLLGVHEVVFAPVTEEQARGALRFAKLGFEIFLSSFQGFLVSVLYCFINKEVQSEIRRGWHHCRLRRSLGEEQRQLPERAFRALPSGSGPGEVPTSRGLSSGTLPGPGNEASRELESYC
The conditions noted are these: HEK293 cells expressing human GIPR, geometric mean, read-out: hGIPR cAMP Rel EC50 nM (SEM, n).

For assay [2], the target named is T2, human glucagon receptor (GcgR) (Homo sapiens, UniProt P47871).
T2 construct: expressed in transfected cells; host or cells: HEK293
Conditions: HEK293 cells expressing human GcgR, geometric mean, read-out: hGcgR cAMP Rel EC50 nM (SEM, n).

The target in assay [3] is T3, human GLP-1 receptor (GLP-1R) (Homo sapiens, UniProt P43220).
T3 construct: expressed in transfected cells; host or cells: HEK293
Conditions: HEK293 cells expressing human GLP-1R, geometric mean, read-out: hGLP1R cAMP Rel EC50 nM (SEM, n).

The EC50 is the concentration that produces a half-maximal response.

*1 amine or outer side, *2 acyl side, *3 side chain or, on linkers, in order; H or OH if unused. Where a SMILES comes first, the peptide text is derived from it. Side-chain parts run from the residue outwards. [ ]: non-standard residue; d: D form. The star is where a group is joined. C20 diacid = O=C(O)CCCCCCCCCCCCCCCCCCC(=O)*; γGlu = O=C(O)[C@H](CCC(=O)[*:2])N[*:1]; αMeF = C[C@](N)(Cc1ccccc1)C(=O)O; 4Pal = N[C@@H](Cc1ccncc1)C(=O)O; αMeL = CC(C)C[C@](C)(N)C(=O)O; AEEA = NCCOCCOCC(=O)O; Aib = CC(C)(N)C(=O)O

T3 sequence (P43220 24-463): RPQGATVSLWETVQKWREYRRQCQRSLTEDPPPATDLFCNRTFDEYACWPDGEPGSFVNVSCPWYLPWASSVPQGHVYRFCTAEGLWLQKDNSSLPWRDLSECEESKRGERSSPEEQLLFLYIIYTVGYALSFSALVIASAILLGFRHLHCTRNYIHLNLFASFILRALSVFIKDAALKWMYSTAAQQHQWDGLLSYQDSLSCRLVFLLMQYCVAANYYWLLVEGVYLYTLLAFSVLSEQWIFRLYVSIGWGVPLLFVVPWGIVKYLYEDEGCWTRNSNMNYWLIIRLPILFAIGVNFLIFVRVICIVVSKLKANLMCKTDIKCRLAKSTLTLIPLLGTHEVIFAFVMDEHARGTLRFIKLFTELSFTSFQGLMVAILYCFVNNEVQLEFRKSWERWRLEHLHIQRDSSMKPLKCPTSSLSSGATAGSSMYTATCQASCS
T2 sequence (P47871 26-477): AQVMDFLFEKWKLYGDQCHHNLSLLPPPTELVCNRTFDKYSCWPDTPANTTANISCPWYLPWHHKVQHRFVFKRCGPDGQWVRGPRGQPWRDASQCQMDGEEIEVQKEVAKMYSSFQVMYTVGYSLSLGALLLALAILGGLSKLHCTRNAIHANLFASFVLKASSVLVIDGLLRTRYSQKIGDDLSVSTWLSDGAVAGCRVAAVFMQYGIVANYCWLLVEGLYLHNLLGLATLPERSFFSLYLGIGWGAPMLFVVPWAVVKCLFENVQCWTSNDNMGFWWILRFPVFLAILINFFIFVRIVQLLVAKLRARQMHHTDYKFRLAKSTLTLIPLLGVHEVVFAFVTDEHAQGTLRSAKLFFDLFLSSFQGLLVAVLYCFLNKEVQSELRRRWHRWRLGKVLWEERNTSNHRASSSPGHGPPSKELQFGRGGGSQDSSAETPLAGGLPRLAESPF

Regarding `CC[C@H](C)[C@H](NC(=O)[C@H](CO)NC(=O)[C@H](Cc1ccc(O)cc1)NC(=O)[C@H](CC(=O)O)NC(=O)[C@H](CO)NC(=O)[C@@H](NC(=O)[C@](C)(Cc1ccccc1)NC(=O)[C@@H](NC(=O)CNC(=O)[C@H](CCC(=O)O)NC(=O)C(C)(C)NC(=O)[C@@H](N)Cc1ccc(O)cc1)[C@@H](C)O)[C@@H](C)CC)C(=O)N[C@@H](C)C(=O)N[C@@H](CC(C)C)C(=O)N[C@@H](CC(=O)O)C(=O)N[C@@H](CCCCN)C(=O)N[C@@H](CCCCNC(=O)COCCOCCNC(=O)COCCOCCNC(=O)CC[C@H](NC(=O)CCCCCCCCCCCCCCCCCCC(=O)O)C(=O)O)C(=O)N[C@@H](Cc1c[nH]cn1)C(=O)N[C@@H](CCC(N)=O)C(=O)NC(C)(C)C(=O)N[C@@H](CC(=O)O)C(=O)N[C@@H](Cc1ccccc1)C(=O)N[C@H](C(=O)N[C@@H](CCC(=O)O)C(=O)N[C@@H](Cc1ccncc1)C(=O)N[C@@H](CC(C)C)C(=O)N[C@@H](CC(C)C)C(=O)N[C@@H](CCC(=O)O)C(=O)N[C@@H](C)C(=O)NCC(=O)N1CCC[C@H]1C(=O)N[C@@H](CO)C(=O)N[C@@H](CO)C(=O)NCC(=O)N[C@@H](C)C(=O)N1CCC[C@H]1C(=O)N1CCC[C@H]1C(=O)N1CCC[C@H]1C(=O)N[C@@H](CO)C(N)=O)C(C)C` [Example 43] (H-Y[Aib]EGT[αMeF]ISDYSIALDKK([AEEA-AEEA-γGlu-C20 diacid])HQ[Aib]DFVE[4Pal]LLEAGPSSGAPPPS-NH2), the concentration for a half-maximal effect (EC50) in assay [1] was 0.0154 nM; in assay [2], more than 5000 nM; in assay [3], 1020 nM.
For `CC[C@H](C)[C@H](NC(=O)[C@H](CO)NC(=O)[C@H](Cc1ccc(O)cc1)NC(=O)[C@H](CC(=O)O)NC(=O)[C@H](CO)NC(=O)[C@@H](NC(=O)[C@](C)(Cc1ccccc1)NC(=O)[C@@H](NC(=O)CNC(=O)[C@H](CCC(=O)O)NC(=O)C(C)(C)NC(=O)[C@@H](N)Cc1ccc(O)cc1)[C@@H](C)O)[C@@H](C)CC)C(=O)N[C@@H](C)C(=O)N[C@@H](CC(C)C)C(=O)N[C@@H](CC(=O)O)C(=O)N[C@@H](CCCCN)C(=O)N[C@@H](CCCCNC(=O)COCCOCCNC(=O)COCCOCCNC(=O)CC[C@H](NC(=O)CCCCCCCCCCCCCCCCCCC(=O)O)C(=O)O)C(=O)N[C@@H](Cc1c[nH]cn1)C(=O)N[C@@H](CCC(N)=O)C(=O)NC(C)(C)C(=O)N[C@@H](CC(=O)O)C(=O)N[C@@H](Cc1ccccc1)C(=O)N[C@H](C(=O)N[C@@H](CCC(=O)O)C(=O)N[C@@H](Cc1ccncc1)C(=O)N[C@@H](CC(C)C)C(=O)N[C@@H](CC(C)C)C(=O)N[C@@H](CCC(=O)O)C(=O)NCC(=O)NCC(=O)N1CCC[C@H]1C(=O)N[C@@H](CO)C(=O)N[C@@H](CO)C(=O)NCC(=O)N[C@@H](C)C(=O)N1CCC[C@H]1C(=O)N1CCC[C@H]1C(=O)N1CCC[C@H]1C(=O)N[C@@H](CO)C(N)=O)C(C)C` [Example 44] (H-Y[Aib]EGT[αMeF]ISDYSIALDKK([AEEA-AEEA-γGlu-C20 diacid])HQ[Aib]DFVE[4Pal]LLEGGPSSGAPPPS-NH2), in that order: 0.0084 nM, more than 5000 nM and 1180 nM.
Taken in the same sequence, the figures for `CC[C@H](C)[C@H](NC(=O)[C@H](Cc1ccccc1)NC(=O)[C@@H](NC(=O)CNC(=O)[C@H](CCC(=O)O)NC(=O)C(C)(C)NC(=O)[C@@H](N)Cc1ccc(O)cc1)[C@@H](C)O)C(=O)N[C@@H](CO)C(=O)N[C@@H](CC(=O)O)C(=O)N[C@@H](Cc1ccc(O)cc1)C(=O)N[C@@H](CO)C(=O)N[C@H](C(=O)N[C@@](C)(CC(C)C)C(=O)N[C@@H](CC(C)C)C(=O)N[C@@H](CC(=O)O)C(=O)N[C@@H](CCCCN)C(=O)N[C@@H](CCCCNC(=O)COCCOCCNC(=O)COCCOCCNC(=O)CC[C@H](NC(=O)CCCCCCCCCCCCCCCCCCC(=O)O)C(=O)O)C(=O)N[C@@H](Cc1c[nH]cn1)C(=O)N[C@@H](CCC(N)=O)C(=O)NC(C)(C)C(=O)N[C@@H](CC(=O)O)C(=O)N[C@@H](Cc1ccccc1)C(=O)N[C@H](C(=O)N[C@@H](CCC(=O)O)C(=O)N[C@@H](Cc1ccncc1)C(=O)N[C@@H](CC(C)C)C(=O)N[C@@H](CC(C)C)C(=O)N[C@@H](CCC(=O)O)C(=O)N[C@H](C(=O)NCC(=O)N1CCC[C@H]1C(=O)N[C@@H](CO)C(=O)N[C@@H](CO)C(=O)NCC(=O)N[C@@H](C)C(=O)N1CCC[C@H]1C(=O)N1CCC[C@H]1C(=O)N1CCC[C@H]1C(=O)N[C@@H](CO)C(N)=O)[C@@H](C)O)C(C)C)[C@@H](C)CC` [Example 45] (H-Y[Aib]EGTFISDYSI[αMeL]LDKK([AEEA-AEEA-γGlu-C20 diacid])HQ[Aib]DFVE[4Pal]LLETGPSSGAPPPS-NH2) were 0.049 nM, 1690 nM and more than 5000 nM.
Taken in the same sequence, the figures for `CC[C@H](C)[C@H](NC(=O)[C@H](Cc1ccccc1)NC(=O)[C@@H](NC(=O)CNC(=O)[C@H](CCC(=O)O)NC(=O)C(C)(C)NC(=O)[C@@H](N)Cc1ccc(O)cc1)[C@@H](C)O)C(=O)N[C@@H](CO)C(=O)N[C@@H](CC(=O)O)C(=O)N[C@@H](Cc1ccc(O)cc1)C(=O)N[C@@H](CO)C(=O)N[C@H](C(=O)N[C@@](C)(CC(C)C)C(=O)N[C@@H](CC(C)C)C(=O)N[C@@H](CC(=O)O)C(=O)N[C@@H](CCCCN)C(=O)N[C@@H](CCCCNC(=O)COCCOCCNC(=O)COCCOCCNC(=O)CC[C@H](NC(=O)CCCCCCCCCCCCCCCCCCC(=O)O)C(=O)O)C(=O)N[C@@H](Cc1c[nH]cn1)C(=O)N[C@@H](CCC(N)=O)C(=O)NC(C)(C)C(=O)N[C@@H](CC(=O)O)C(=O)N[C@@H](Cc1ccccc1)C(=O)N[C@H](C(=O)N[C@@H](CCC(=O)O)C(=O)N[C@@H](Cc1ccncc1)C(=O)N[C@@H](CC(C)C)C(=O)N[C@@H](CC(C)C)C(=O)N[C@@H](CCC(=O)O)C(=O)N[C@@H](CCC(N)=O)C(=O)NCC(=O)N1CCC[C@H]1C(=O)N[C@@H](CO)C(=O)N[C@@H](CO)C(=O)NCC(=O)N[C@@H](C)C(=O)N1CCC[C@H]1C(=O)N1CCC[C@H]1C(=O)N1CCC[C@H]1C(=O)N[C@@H](CO)C(N)=O)C(C)C)[C@@H](C)CC` [Example 46] (H-Y[Aib]EGTFISDYSI[αMeL]LDKK([AEEA-AEEA-γGlu-C20 diacid])HQ[Aib]DFVE[4Pal]LLEQGPSSGAPPPS-NH2) were 0.0294 nM, 863 nM and more than 5000 nM.
As for `CC[C@H](C)[C@H](NC(=O)[C@H](Cc1ccccc1)NC(=O)[C@@H](NC(=O)CNC(=O)[C@H](CCC(=O)O)NC(=O)C(C)(C)NC(=O)[C@@H](N)Cc1ccc(O)cc1)[C@@H](C)O)C(=O)N[C@@H](CO)C(=O)N[C@@H](CC(=O)O)C(=O)N[C@@H](Cc1ccc(O)cc1)C(=O)N[C@@H](CO)C(=O)N[C@H](C(=O)N[C@@](C)(CC(C)C)C(=O)N[C@@H](CC(C)C)C(=O)N[C@@H](CC(=O)O)C(=O)N[C@@H](CCCCN)C(=O)N[C@@H](CCCCNC(=O)COCCOCCNC(=O)COCCOCCNC(=O)CC[C@H](NC(=O)CCCCCCCCCCCCCCCCCCC(=O)O)C(=O)O)C(=O)N[C@@H](Cc1c[nH]cn1)C(=O)N[C@@H](CCC(N)=O)C(=O)NC(C)(C)C(=O)N[C@@H](CC(=O)O)C(=O)N[C@@H](Cc1ccccc1)C(=O)N[C@H](C(=O)N[C@@H](CCC(=O)O)C(=O)N[C@@H](Cc1ccncc1)C(=O)N[C@@H](CC(C)C)C(=O)N[C@@H](CC(C)C)C(=O)N[C@@H](CCC(=O)O)C(=O)NCC(=O)NCC(=O)N1CCC[C@H]1C(=O)N[C@@H](CO)C(=O)N[C@@H](CO)C(=O)NCC(=O)N[C@@H](C)C(=O)N1CCC[C@H]1C(=O)N1CCC[C@H]1C(=O)N1CCC[C@H]1C(=O)N[C@@H](CO)C(N)=O)C(C)C)[C@@H](C)CC` [Example 47] (H-Y[Aib]EGTFISDYSI[αMeL]LDKK([AEEA-AEEA-γGlu-C20 diacid])HQ[Aib]DFVE[4Pal]LLEGGPSSGAPPPS-NH2), the EC50 in assay [1] is 0.0234 nM; in assay [2] it was 757 nM; in assay [3], more than 5000 nM.
In the case of `CC[C@H](C)[C@H](NC(=O)[C@H](Cc1ccccc1)NC(=O)[C@@H](NC(=O)CNC(=O)[C@H](CCC(=O)O)NC(=O)C(C)(C)NC(=O)[C@@H](N)Cc1ccc(O)cc1)[C@@H](C)O)C(=O)N[C@@H](CO)C(=O)N[C@@H](CC(=O)O)C(=O)N[C@@H](Cc1ccc(O)cc1)C(=O)N[C@@H](CO)C(=O)N[C@H](C(=O)N[C@@](C)(CC(C)C)C(=O)N[C@@H](CC(C)C)C(=O)N[C@@H](CC(=O)O)C(=O)N[C@@H](CCCCN)C(=O)N[C@@H](CCCCNC(=O)COCCOCCNC(=O)COCCOCCNC(=O)CC[C@H](NC(=O)CCCCCCCCCCCCCCCCCCC(=O)O)C(=O)O)C(=O)N[C@@H](Cc1c[nH]cn1)C(=O)N[C@@H](CCC(N)=O)C(=O)NC(C)(C)C(=O)N[C@@H](CC(=O)O)C(=O)N[C@@H](Cc1ccccc1)C(=O)N[C@H](C(=O)N[C@@H](CCC(=O)O)C(=O)N[C@@H](Cc1ccncc1)C(=O)N[C@@H](CC(C)C)C(=O)N[C@@H](CC(C)C)C(=O)N[C@@H](C)C(=O)NCC(=O)NCC(=O)N1CCC[C@H]1C(=O)N[C@@H](CO)C(=O)N[C@@H](CO)C(=O)NCC(=O)N[C@@H](C)C(=O)N1CCC[C@H]1C(=O)N1CCC[C@H]1C(=O)N1CCC[C@H]1C(=O)N[C@@H](CO)C(N)=O)C(C)C)[C@@H](C)CC` [Example 48], the half-maximal effective concentration (EC50) in assay [1] was 0.0166 nM; in assay [2], 1360 nM; in assay [3], more than 5000 nM.
